Target: T1, human 17βHSD type 3 (Homo sapiens, UniProt P37058)
T1 construct: A full-length cDNA encoding human 17βHSD type 3 used in the pharmacological test; made in house; host or cells: human fetus kidney-derived 293 cells (transfected; supernatant of disrupted cells, not purified)
T1 sequence (P37058 1-310): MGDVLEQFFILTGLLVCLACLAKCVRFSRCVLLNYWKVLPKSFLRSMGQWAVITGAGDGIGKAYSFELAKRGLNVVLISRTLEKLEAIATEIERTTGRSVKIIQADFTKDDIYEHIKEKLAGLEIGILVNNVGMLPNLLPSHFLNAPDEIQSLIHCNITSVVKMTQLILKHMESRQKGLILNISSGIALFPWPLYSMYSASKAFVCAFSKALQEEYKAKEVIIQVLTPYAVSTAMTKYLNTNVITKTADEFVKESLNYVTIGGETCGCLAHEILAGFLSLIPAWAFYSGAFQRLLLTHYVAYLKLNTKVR
Assay: Measurement of enzyme activity of human 17βHSD type 3
Assay type: biochemical
Conditions: enzyme source: supernatant of transformed 293 cells; read-out: Type3 IC50
Procedure: A full-length cDNA encoding human 17βHSD type 3 used in the pharmacological test of this test example was obtained by the PCR method using a cDNA derived from human testis as a template. The nucleotide sequence of the obtained cDNA was analyzed by the dideoxyterminator method, and the clone matched with the known human 17βHSD type 3 sequence (GenBank accession No. BC034281) was selected. Subsequently, human fetus kidney-derived cell line, 293 cells, were transformed with a plasmid containing the cDNA, and the cells were collected 24 hours later. […]
Enzyme activity was measured referring to Trevor M. Penning, et al., Biochem. J., 351, 67-77, (2000). Specifically, using a 100 mM potassium phosphate buffer (pH 6.0), (1) the enzyme purified in Section 1 at a final concentration of 10 μg/mL, (2) androstenedione at a final concentration of 300 nM, (3) NADPH at a final concentration of 200 μM, and (4) a test substance, were mixed to react at room temperature for 2 hours, and then the amount of testosterone produced was measured using DELFIA (trademark) Testosterone Reagents R050-201 (manufactured by PerkinElmer). […] Then, IC50 values were calculated by the Logistic regression method.

`COc1nc2cc(C(F)(F)F)ccc2n1-c1cccc(C(=O)O)c1` [compound 32, 3-[2-methoxy-5-(trifluoromethyl)-1H-benzimidazol-1-yl]benzoic acid] and `O=C(O)c1cccc(-n2c(COc3ccccc3)nc3cc(C(F)(F)F)ccc32)c1` [compound 44, 3-[2-phenoxymethyl-5-(trifluoromethyl)-1H-benzimidazol-1-yl]benzoic acid] cannot be ordered by IC50: > 10 µM for the first, > 10 µM for the second.

Tested on: testosterone production in the CWR22R tumor
Assay: Testosterone production suppression in the tumor of a CWR22R tumor-bearing mouse
Assay type: in vivo, nude mouse
Conditions: 22Rv1, 10 mg/kg oral, androstenedione 1 ng/100 mm^3 into the tumor an hour later, dissection an hour after that, read-out: Inh (%) testosterone production suppression rate
Description: Inhibition rate (%)=100×(average value of the hormone concentration in the solvent for administering test substance-administered group−average value of the hormone concentration in the test substance-administered group)/(average value of the hormone concentration in the solvent for administering test substance-administered group−average value of the background hormone concentration)
A CWR22R tumor was excised from a CWR22R subcutaneous tumor-bearing nude mouse. The excised tumor was segmented to become tumor specimens with size of about 5 mm per specimen. The tumor specimens were washed with a 20% serum-containing RPMI1640 culture medium twice and then stirred for about 20 minutes in a 0.1% protease and 20% serum-containing RPMI1640 culture medium. Supernatant was recovered to recover cells through centrifugation. These procedures were repeated as necessary, recovered cells were collected, and thereby the cell solution was prepared. After the cell number was counted, the cell solution was adjusted to 2×10^7 cells/mL. The same amount of the cell solution and Matrigel were mixed and adjusted to the final value of 1×10^7 cells/mL. 0.1 mL of the cell Matrigel mixture prepared in the above-described manner was subcutaneously injected to one site of the back of a male nude mouse with testectomy for the transplant. After the transplant, at a time point when the tumor volume reached 100 mm^3 or more, grouping was performed based on the tumor volume to conduct the following experiments.
Test substances were orally administered to the CWR22R subcutaneous tumor-bearing mouse. After an hour, that is, an hour before dissection, androstenedione was administered into the tumor to yield a level of 1 ng/100 mm^3 in the tumor. The composition of the liquid for administering androstenedione included 0.000075% DMF/0.00005% polysorbate 80/9.999875% saline/90% Matrigel. Tumor excision was performed through the dissection, and the tumor was weighed and then frozen for preservation. For the purpose of measuring the background value, the tumor of the mouse to which only the solvent for administering test substances had been orally administered was excised. Subsequently, under the ice cooling, the liquid for administering androstenedione was added thereto, and the resultant was subjected to quick-freezing for preservation.
To the tumor sample preserved through freezing was added a 0.2 M Na-K phosphate buffer (pH 7.4), and thereby a tumor homogenate was prepared under ice cooling by using a homogenizer (polytron). Tert-butyl methyl ether with a 6-fold capacity was added to the tumor homogenate, followed by centrifugation (3000 rpm, 5 min), and the supernatant was transferred to another test tube. While the test tube was maintained at 40° C. in a heat block, the solvent was evaporated by nitrogen gas. 2% BSA-containing 10 mM Tris-Cl buffer (pH 7.4) was added to the test tube and mixed to obtain an extract, and the testosterone concentration was measured by using DELFIA (trademark) Testosterone Reagents R050-201 (manufactured by PerkinElmer, Inc.).
The testosterone production suppression rates (%) of some Reference Example compounds in the tumor of CWR22R tumor-bearing mouse are shown in Table 25. Ex represents a Reference Example number, Inh represents the testosterone production suppression rates upon administration of 10 mg/kg of the Reference Example compounds.

Point of comparison: `O=C(O)c1cccc(-n2c(-c3ccccc3)nc3cc(C(F)(F)F)ccc32)c1` [compound 17, 3-[2-phenyl-5-(trifluoromethyl)-1H-benzimidazol-1-yl]benzoic acid], inhibition at 10 mg/kg 75%. Against it:
- O=C(O)c1cccc(-n2c(Cc3ccc(F)cc3)nc3cc(C(F)(F)F)ccc32)c1 [compound 40, 3-[2-(4-fluorobenzyl)-5-(trifluoromethyl)-1H-benzimidazol-1-yl]benzoic acid] — lower, 49%
- O=C(O)c1cccc(-n2c(Cc3cccc(F)c3)nc3cc(C(F)(F)F)ccc32)c1 [compound 39, 3-[2-(3-fluorobenzyl)-5-(trifluoromethyl)-1H-benzimidazol-1-yl]benzoic acid] — lower, 31%
- CCCc1nc2cc(C(F)(F)F)ccc2n1-c1cccc(C(=O)O)c1 [compound 23, 3-[2-propyl-5-(trifluoromethyl)-1H-benzimidazol-1-yl]benzoic acid] — higher, 96%
- Cc1nc2cc(C(F)(F)F)ccc2n1-c1cccc(C(=O)O)c1 [compound 21, 3-[2-methyl-5-(trifluoromethyl)-1H-benzimidazol-1-yl]benzoic acid] — higher, 97%
- O=C(O)c1cccc(-n2cnc3cc(C(F)(F)F)ccc32)c1 [compound 20, 3-[5-(trifluoromethyl)-1H-benzimidazol-1-yl]benzoic acid] — higher, 89%
- O=C(O)c1cccc(-n2c(Cc3ccccc3)nc3cc(C(F)(F)F)ccc32)c1 [compound 38, 3-[2-benzyl-5-(trifluoromethyl)-1H-benzimidazol-1-yl]benzoic acid] — lower, 66%
- O=C(O)c1cccc(-n2c(C(F)(F)F)nc3cc(C(F)(F)F)ccc32)c1 [Reference Example 54, 3-[2,5-bis(trifluoromethyl)-1H-benzimidazol-1-yl]benzoic acid] — higher, 99%
- Cc1cccc(-c2nc3cc(C(F)(F)F)ccc3n2-c2cccc(C(=O)O)c2)c1 [compound 36, 3-[2-(3-methylphenyl)-5-(trifluoromethyl)-1H-benzimidazol-1-yl]benzoic acid] — lower, 45%
- COCCc1cn(-c2cccc(C(=O)O)c2)c2ccc(C(F)(F)F)cc12 [Reference Example 47, 3-[3-(2-methoxyethyl)-5-(trifluoromethyl)-1H-indol-1-yl]benzoic acid] — lower, 33%
- O=C(O)c1cccc(-n2c(COc3ccc(F)cc3)nc3cc(C(F)(F)F)ccc32)c1 [compound 45] — higher, 94%
- O=C(O)c1cccc(-n2c(Cc3ccc(Cl)cc3)nc3cc(C(F)(F)F)ccc32)c1 [compound 41, 3-[2-(4-chlorobenzyl)-5-(trifluoromethyl)-1H-benzimidazol-1-yl]benzoic acid] — lower, 45%

— patent US20110282066A1, “SCREENING METHOD FOR SUBSTANCE USEFUL AS AGENT FOR TREATING PROSTATE CANCER” (priority 2009, published 2011)
